Data set [1] is described as follows: Cyclic voltammetry, redox potentials. Type of data set: physicochemical. From the text:
All reagents and solvents used were purchased from commercial sources and used as received unless otherwise noted. Prior to use, methanol (Pharmco-Aaper) was distilled over magnesium metal, dimethyl sulfoxide (Fisher Scientific) was distilled over calcium hydride, triethylamine was distilled over sodium metal and unstabilized dichloromethane (Fisher Scientific) was distilled over calcium hydride. Ferrocene was purified by sublimation for use as a reference for electrochemical analyses. All manipulations involving ferrous complexes were carried out in an inert atmosphere glovebox (M. Braun, Stratham, N.H.) with distilled and thoroughly degassed solvents. UV/Vis spectra were collected using a Hewlett Packard Spectrometer (8453). IR spectra were collected using a Thermo Nicolet AVATAR 330-FT-IR. Cyclic voltammetry experiments were performed using a Princeton Applied Research model 273 potentiostat with a glassy carbon working electrode, a silver wire reference electrode and a platinum wire counter electrode. Electron Paramagnetic Resonance (EPR) spectra were collected on a Bruker ESP-300E spectrometer operating at 9.460 GHz. NMR spectra were recorded at 25° C. using a Varian spectrometer operating at 400 MHz with all chemical shifts referenced to SiMe4. Iron concentrations were determined using a Varian AA240Z Atomic Absorption Spectrometer.
Cyclic voltammetry was performed inside an inert atmosphere (N2) box, with degassed DMSO as the solvent and tetra-N-butylammonium hexafluorophosphate as the supporting electrolyte (0.2M). The ferrocenium/ferrocene couple was used as an internal reference; reduction potential values were corrected by assigning the ferrocenium/ferrocene couple to 0.64 V versus NHE (Zanello, P. Inorganic Electrochemistry; The Royal Society of Chemistry: Cambridge, 2003). Chloride titration experiments were performed by collecting CV data after the addition of one and two 50 μL aliquots of 204 mM [NEt4][Cl] to 3.0 mL of 3.4 mM [Fe^II(N2O1py)(Cl)2]^− (concentration determined using flame atomic absorption spectroscopy) and correcting the potential with reference to the ferrocenium/ferrocene couple.
It should be noted that these redox potentials were determined in the absence of excess halide, and further CV studies will be performed in the presence of excess halide for all derivatives of the N2O1py system.

The nature of data set [2]: Stopped-flow kinetics of NO binding at −85° C. in methanol. As to conditions: NO 6.4 mM. From the text: (§1) Stopped-flow Spectroscopy and Data analysis.
For data set [3] the following is noted: cited from earlier work; for second order rate constant k of NO binding: 20° C., stopped-flow with laser flash photolysis.
Data set [4] in a line: Catalytic oxidation of methanol to formaldehyde with α-KG and O2 (Nash assay). As to conditions: N2O1py system, five equivalents [Na][αKG], O2, 60 min.
Data set [5] is described as follows: Room temperature O2 reactivity of ferrous complexes followed by UV/vis. As to conditions: αKG adduct. The protocol:
The solution was transferred to an anaerobic UV/vis cell and sealed. An initial spectrum was obtained of the ferrous complex, and then the solution was exposed to the air. Spectra were recorded every minute for the first two minutes and then every 5-30 minutes after that for seven hours. The absorbance was monitored at 350 nm to follow formation of the oxidized complex.
This solution was then transferred to an anaerobic UV/vis cell and sealed. An initial spectrum was obtained of the ferrous complex, and then the solution was exposed to the air. Spectra were collected every minute for the first 30 minutes and then every 5-20 minutes after that for 2 hours. The absorbance was monitored at 315 nm to follow formation of the oxidized complex.

The conditions of data set [6]: estimated value for the functional group; cited from earlier work.
Data set [7] can be described thus: Low-temperature stopped-flow kinetics of adduct complexes with dioxygen. As to conditions: complex 0.94-1.1 mM, O2 5 mM, methanol, −85° C. The protocol: as §1
Kinetic studies of [Fe^II(N2O1)(α-KG)(CH3OH)]^− and [Fe^II(N2O1)(p-X-BF)(CH3OH)]^− adduct complexes with dioxygen. Low-temperature stopped flow studies of this reaction were performed.
Order dependence analysis.
The kinetic model was built by starting from simple two- and three-exponential processes.
Stoichiometry of the equations for the proposed model in FIG. 29: […]

For the molecule `CN(C)CCN(C)CC(=O)[O-].[Cl-].[Cl-].[Cl-].[Fe+3]` [Fe^III N2O1, [Fe^III(N2O1)(Cl)3]], the E1/2 entry in data set [1] (no added halide, in mV) was “+136”.
Take `CN(C)c1cccc2cccc([NH+](C)C)c12.CN(CC(=O)[O-])Cc1ccccn1.[Cl-].[Cl-].[Cl-].[Fe+3]` [Fe^III N2O1py, [PSH][Fe^III(N2O1py)(Cl)3]]: in data set [1] (no added halide), the ΔE was 128 mV. Also, the E1/2 result in data set [1] (no added halide, in mV) is given as “+189”.
With `O.O.O=C([O-])CN(CCN(CC(=O)[O-])CC(=O)O)CC(=O)[O-].[Cl-].[K+].[Ru+3]` [K[Ru^III(Hedta)Cl].2H2O], in data set [2], the “k20 (loss of a ligand before NO binding)” value was determined as 8.2 s⁻¹ and the “k21 (second order, NO binding)” value was 127 M⁻¹ s⁻¹. For the same molecule, the “rate k of reaction with NO” value in data set [3] (room temperature, aqueous solution, depending on pH) is 38000 to 120000 M⁻¹ s⁻¹.
As to `O.O.O.O.O.O.[Fe+2]` [[Fe(H2O)6)]^2+], the “second order rate constant k of NO binding” value in data set [3] was 1.42e+06 M⁻¹ s⁻¹.
Consider `CN(CC(=O)[O-])Cc1ccccn1.O=C([O-])CCC(=O)C(=O)[O-].[Fe+2]` [[Fe^II(N2O1py)(αKG)]], for which the “turnover number (equivalents of formaldehyde per iron center)” value in data set [4] (iron complex 1.0 μM) worked out at 33. The “turnover number (equivalents of formaldehyde per equivalent of iron)” value in data set [4] (iron complex 100 μM) was 0.7. In data set [5], the “time for reaction with O2, in words” value is “within minutes”.
Consider `C#Cc1ccnc(CN(C)CC(=O)[O-])c1.CC[NH+](CC)CC.CO.[Cl-].[Cl-].[Fe+2]` [[Fe^II(N2O1py-alkyne)], [C6H16N][Fe^II(N2O1-alkyne)(MeOH)(Cl)2]], for which, in data set [1] (DMSO, glassy carbon working electrode, absence of excess halide), the E1/2 turned out to be 270 mV.
Regarding `N#C[N-]C#N.N#C[N-]C#N.N#C[N-]C#N.N#C[N-]C#N.N#C[N-]C#N.[Cl-].[Fe+2]` [[Fe^II(dca)5Cl]^4−], the “second order rate constant k of NO binding” value in data set [3] was 1.7e+07 M⁻¹ s⁻¹.
On to `CN(CC(=O)O)Cc1ccccn1` [[H2N2O1py]^+, 2-(methyl(pyridine-1-ium-2-ylmethyl)ammonio)acetate], for which, in data set [6], the “estimated pKa, carboxylic acid” value is listed as approximately 4.8; the “estimated pKa, pyridinium” value is recorded as approximately 5.2; the “estimated pKa, tertiary ammonium” value was approximately 10.
In the case of `CN(C)CCN(C)CC(=O)[O-].CO.N#Cc1ccc(C(=O)C(=O)[O-])cc1.[Fe+2]` [compound 25, [Fe^II(N2O1)(p-CN-BF)(CH3OH)]], in data set [7], the “k′1” value was determined as 8.7 ± 1.2 s⁻¹, the “k′2” value came to 140 ± 12 M⁻¹ s⁻¹, the “k′3” value amounted to 60 ± 5 s⁻¹ and the “k′4 (k′4obs)” value came out at 0.2 ± 0.02 s⁻¹.
The like results for `CN(C)CCN(C)CC(=O)[O-].CO.Nc1ccc(C(=O)C(=O)[O-])cc1.[Fe+2]` [compound 26, [Fe^II(N2O1)(p-NH2-BF)(CH3OH)]] were, in that order, 8.5 ± 1.8 s⁻¹, 2700 ± 300 M⁻¹ s⁻¹, 1.0 ± 0.2 s⁻¹ and 1.7 ± 0.4 s⁻¹.
